Results on 15 compounds are retold here after patent US20250145665A1, “MACROCYCLIC PEPTIDES USEFUL AS MODULATORS OF TNF ALPHA” (Bristol-Myers Squibb Company, priority 2023, published 2025).

Starred links: 1 amine or outer side, 2 acyl side, 3 side chain; linkers in the order of their positions; H or OH if unused. Positions of bridges follow the written chain, without caps; N, C: chain ends. Non-standard residues stand in square brackets, D forms with d. Residues, ends and D or L forms follow the SMILES beside them. *: point of attachment. Bip(4'-NH) = O=C([C@H](Cc1ccc(-c2ccc(N[*:3])cc2)cc1)N[*:1])[*:2]; Indazole3carbonyl(1-CH2COOH) = O=C(O)Cn1nc(C(=O)*)c2ccccc21; Bip(4'-COOH) = N[C@@H](Cc1ccc(-c2ccc(C(=O)O)cc2)cc1)C(=O)O; Bip(4'-NHAc) = CC(=O)Nc1ccc(-c2ccc(C[C@H](N)C(=O)O)cc2)cc1; X4 = N=C(NCCCc1cccc(N)c1)NCCC[C@@H](N[*:1])C(=O)[*:2]; Pro(cis-4-Ph) = O=C(O)[C@@H]1C[C@H](c2ccccc2)CN1; Ala(imidazol-2-yl) = N[C@@H](Cc1ncc[nH]1)C(=O)O; Ala(morpholin-4-yl) = N[C@@H](CN1CCOCC1)C(=O)O; Benzoyl(3-OCH2COOH) = O=C(O)COc1cccc(C(=O)*)c1; Bip = N[C@@H](Cc1ccc(-c2ccccc2)cc1)C(=O)O; Ala(2-furyl) = N[C@@H](Cc1ccco1)C(=O)O; Phe(4-Me) = Cc1ccc(C[C@H](N)C(=O)O)cc1; Tiq1c(1S) = O=C(O)[C@H]1NCCc2ccccc21; Bta = N[C@@H](Cc1csc2ccccc12)C(=O)O; Val(3-OH) = CC(C)(O)[C@H](N)C(=O)O; 2Pal = N[C@@H](Cc1ccccn1)C(=O)O; X32 = O=C(c1sc2cccc(Cl)c2c1Cl)*; 2Thi = N[C@@H](Cc1cccs1)C(=O)O; Cha = N[C@@H](CC1CCCCC1)C(=O)O; Chg = N[C@H](C(=O)O)C1CCCCC1; Tle = CC(C)(C)[C@H](N)C(=O)O; Hpra = C#CCC[C@H](N)C(=O)O; Aze = O=C(O)[C@@H]1CCN1; Sar = CNCC(=O)O

One test deals with TNFα (Homo sapiens, UniProt P01375). As to the kind of experiment: TNF-Induced HEK-Blue Assay. The class given is cell-based.
TNFα, sequence (P01375 77-233 limits assumed): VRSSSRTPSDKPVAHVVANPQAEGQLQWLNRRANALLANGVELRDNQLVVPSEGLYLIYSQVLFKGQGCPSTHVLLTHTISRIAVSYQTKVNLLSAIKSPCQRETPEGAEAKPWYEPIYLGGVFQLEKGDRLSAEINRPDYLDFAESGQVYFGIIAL
Conditions: not given
The IC50 is the concentration that inhibits the measured activity by half. `CC(C)C[C@@H]1NC(=O)[C@H](CCCNC(=N)N)NC(=O)[C@H](C(C)C)NC(=O)[C@@H]2CCCN2C(=O)[C@H](C(C)C)NC(=O)[C@@H](CCCNC(=N)NCCCc2cccc(N)c2)NC(=O)[C@H](CC(=O)O)NC(=O)[C@@H]2CCCN2C(=O)CN(C)C(=O)[C@H](Cc2ccc(-c3ccc(NC(=O)c4nn(CC(=O)O)c5ccccc45)cc3)cc2)NC(=O)[C@H](Cc2ccc(-c3ccccc3)cc2)NC(=O)[C@H](CN2CCOCC2)NC(=O)CSC[C@@H](C(=O)NCC(N)=O)NC1=O` [Example 393] ({CH2CO}-[Ala(morpholin-4-yl)][Bip][Bip(4'-NH)](Indazole3carbonyl(1-CH2COOH))[Sar]PD[X4]VPVRLCG-NH2; thioether N-13) gave an IC50 of less than 50 nM.

Still in this test, the particulars now being: HEK-Blue-CD40L cells, NF-kB-driven secreted alkaline phosphatase reporter; TNFα 0.5 ng/ml; 18 h; read-out: TNF induced HEK-Blue assay IC50 value.
For the compound `CC(=O)Nc1ccc(-c2ccc(C[C@@H]3NC(=O)[C@H](Cc4ccc(-c5ccccc5)cc4)NC(=O)[C@H](C(C)(C)C)NC(=O)CSC[C@@H](C(=O)NCC(N)=O)NC(=O)[C@H](CC(C)C)NC(=O)[C@H](Cc4cccs4)NC(=O)[C@H](C(C)C)NC(=O)[C@@H]4CCCN4C(=O)[C@H](C(C)C)NC(=O)[C@@H](CCCNC(=N)N)NC(=O)[C@H](CC(=O)O)NC(=O)[C@H](Cc4ccc(O)cc4)NC(=O)CN(C)C3=O)cc2)cc1` [Example 259] ({CH2CO}-[Tle][Bip][Bip(4'-NHAc)][Sar]YD[dR]VPV[2Thi]LCG-NH2; thioether N-13), the IC50 was less than 50 nM.
The same measure, in the same setting: as for `CC[C@H](C)[C@@H]1NC(=O)[C@@H](CCCNC(=N)N)NC(=O)[C@H](CC(=O)O)NC(=O)[C@H](Cc2cnc[nH]2)NC(=O)CN(C)C(=O)[C@H](Cc2ccc(-c3ccc(NC(=O)c4cccc(OCC(=O)O)c4)cc3)cc2)NC(=O)[C@H](Cc2ccc(-c3ccccc3)cc2)NC(=O)[C@H](CC2CCCCC2)NC(=O)CSC[C@@H](C(=O)NCC(N)=O)NC(=O)[C@H](CC(C)C)NC(=O)[C@H](Cc2c[nH]cn2)NC(=O)[C@H](C(C)C)NC(=O)[C@@H]2c3ccccc3CCN2C1=O` [Example 516] ({CH2CO}-[Cha][Bip][Bip(4'-NH)](Benzoyl(3-OCH2COOH))[Sar]HD[dR]I[Tiq1c(1S)]VHLCG-NH2; thioether N-13), the figure is less than 50 nM.
The same measure, in the same setting: as for `CC[C@H](C)[C@@H]1NC(=O)[C@@H](CCCNC(=N)N)NC(=O)[C@H](CC(=O)O)NC(=O)[C@H](Cc2cnc[nH]2)NC(=O)CN(C)C(=O)[C@H](Cc2ccc(-c3ccc(NC(=O)c4sc5cccc(Cl)c5c4Cl)cc3)cc2)NC(=O)[C@H](Cc2ccc(-c3ccccc3)cc2)NC(=O)[C@H](CC2CCCCC2)NC(=O)CSC[C@@H](C(=O)NCC(N)=O)NC(=O)[C@H](CC(C)C)NC(=O)[C@H](Cc2cnc[nH]2)NC(=O)[C@H](C(C)C)NC(=O)[C@@H]2CCCN2C1=O` [Example 325] ({CH2CO}-[Cha][Bip][Bip(4'-NH)](X32)[Sar]HD[dR]IPVHLCG-NH2; thioether N-13), the figure is 200 to 2000 nM; as for `CC(C)C[C@@H]1NC(=O)[C@H](CCCNC(=N)N)NC(=O)[C@H](C(C)C)NC(=O)[C@@H]2CCCN2C(=O)[C@H](C(C)C)NC(=O)[C@H](CCCNC(=N)N)NC(=O)[C@H](CC(=O)O)NC(=O)[C@@H]2C[C@H](c3ccccc3)CN2C(=O)CN(C)C(=O)[C@H](Cc2ccc(-c3ccccc3)cc2)NC(=O)[C@H](Cc2ccc(-c3ccccc3)cc2)NC(=O)[C@H](CN2CCOCC2)NC(=O)CSC[C@@H](C(=O)NCC(N)=O)NC1=O` [Example 96] ({CH2CO}-[Ala(morpholin-4-yl)][Bip][Bip][Sar][Pro(cis-4-Ph)]DRVPVRLCG-NH2; thioether N-13), 50 to 200 nM; as for `CC(=O)Nc1ccc(-c2ccc(C[C@@H]3NC(=O)[C@H](Cc4ccc(-c5ccc(C(=O)O)cc5)cc4)NC(=O)[C@H](CN4CCOCC4)NC(=O)CSC[C@@H](C(=O)NCC(N)=O)NC(=O)[C@H](CC(C)C)NC(=O)[C@H](CCCNC(=N)N)NC(=O)[C@H](C(C)C)NC(=O)[C@@H]4CCN4C(=O)[C@H](C(C)C)NC(=O)[C@@H](CCCNC(=N)N)NC(=O)[C@H](CC(=O)O)NC(=O)[C@H](Cc4ccccn4)NC(=O)CN(C)C3=O)cc2)cc1` [Example 185] ({CH2CO}-[Ala(morpholin-4-yl)][Bip(4'-COOH)][Bip(4'-NHAc)][Sar][2Pal]D[dR]V[Aze]VRLCG-NH2; thioether N-13), less than 50 nM.
Same read-out and setting: as for `CC(C)C[C@@H]1NC(=O)[C@H](Cc2csc3ccccc23)NC(=O)[C@H](C(C)C)NC(=O)[C@@H]2CCCN2C(=O)[C@H](C(C)C)NC(=O)[C@@H](CCCNC(=N)N)NC(=O)[C@H](CC(=O)O)NC(=O)[C@H](Cc2ccc(O)cc2)NC(=O)CN(C)C(=O)[C@H](Cc2ccc(-c3ccccc3)cc2)NC(=O)[C@H](Cc2ccc(-c3ccccc3)cc2)NC(=O)[C@H](CN2CCOCC2)NC(=O)CSC[C@@H](C(=O)NCC(N)=O)NC1=O` [Example 158] ({CH2CO}-[Ala(morpholin-4-yl)][Bip][Bip][Sar]YD[dR]VPV[Bta]LCG-NH2; thioether N-13), the figure is 200 to 2000 nM; as for `CC(=O)Nc1ccc(-c2ccc(C[C@@H]3NC(=O)[C@H](Cc4ccc(-c5ccccc5)cc4)NC(=O)[C@H](CN4CCOCC4)NC(=O)CSC[C@@H](C(=O)NCC(N)=O)NC(=O)[C@H](CC(C)C)NC(=O)[C@H](Cc4c[nH]cn4)NC(=O)[C@H](C4CCCCC4)NC(=O)[C@@H]4CCCN4C(=O)[C@H](C(C)C)NC(=O)[C@@H](CCCNC(=N)N)NC(=O)[C@H](CC(=O)O)NC(=O)[C@H](Cc4ccco4)NC(=O)CN(C)C3=O)cc2)cc1` [Example 524] ({CH2CO}-[Ala(morpholin-4-yl)][Bip][Bip(4'-NHAc)][Sar][Ala(2-furyl)]D[dR]VP[Chg]HLCG-NH2; thioether N-13), 50 to 200 nM.
`C#CCC[C@@H]1NC(=O)[C@H](CCCNC(=N)N)NC(=O)[C@H](CC(=O)O)NC(=O)[C@@H]2CCCN2C(=O)CN(C)C(=O)[C@H](Cc2ccc(-c3ccccc3)cc2)NC(=O)[C@H](Cc2ccc(-c3ccccc3)cc2)NC(=O)[C@H](Cc2ccccc2)NC(=O)CSC[C@@H](C(=O)NCC(N)=O)NC(=O)[C@H](CC(C)C)NC(=O)[C@H](CCCNC(=N)N)NC(=O)[C@H](C(C)C)NC(=O)[C@@H]2CCCN2C1=O` [Example 33] ({CH2CO}-F[Bip][Bip][Sar]PDR[Hpra]PVRLCG-NH2; thioether N-13): the IC50 was 200 to 2000 nM.
Still for that read-out and setting: as for `CC(=O)Nc1ccc(-c2ccc(C[C@@H]3NC(=O)[C@H](Cc4ccc(-c5ccc(C(=O)O)cc5)cc4)NC(=O)[C@H](CC4CCCCC4)NC(=O)CSC[C@@H](C(=O)NCC(N)=O)NC(=O)[C@H](CC(C)C)NC(=O)[C@H](Cc4ccc(O)cc4)NC(=O)[C@H](C(C)C)NC(=O)[C@@H]4CCCN4C(=O)[C@H](CC(N)=O)NC(=O)[C@@H](CCCNC(=N)N)NC(=O)[C@H](CC(=O)O)NC(=O)[C@@H]4CCCN4C(=O)CN(C)C3=O)cc2)cc1` [Example 247] ({CH2CO}-[Cha][Bip(4'-COOH)][Bip(4'-NHAc)][Sar]PD[dR]NPVYLCG-NH2; thioether N-13), the figure is 50 to 200 nM; as for `CC(C)C[C@@H]1NC(=O)[C@H](Cc2ccc(O)cc2)NC(=O)[C@H](C(C)C)NC(=O)[C@@H]2CCCN2C(=O)[C@H](C(C)C)NC(=O)[C@H](CCCNC(=N)N)NC(=O)[C@H](CC(=O)O)NC(=O)[C@@H]2CCCN2C(=O)CN(C)C(=O)[C@H](Cc2ccc(-c3ccccc3)cc2)NC(=O)[C@H](Cc2ccc(-c3ccccc3)cc2)NC(=O)[C@H](C(C)(C)O)NC(=O)CSC[C@@H](C(=O)NCC(N)=O)NC1=O` [Example 64] ({CH2CO}-[Val(3-OH)][Bip][Bip][Sar]PDRVPVYLCG-NH2; thioether N-13), 200 to 2000 nM; as for `CC[C@H](C)[C@@H]1NC(=O)[C@@H](CCCNC(=N)N)NC(=O)[C@H](CC(=O)O)NC(=O)[C@@H]2c3ccccc3CCN2C(=O)CN(C)C(=O)[C@H](Cc2ccc(-c3ccc(NC(C)=O)cc3)cc2)NC(=O)[C@H](Cc2ccc(-c3ccc(C(=O)O)cc3)cc2)NC(=O)[C@H](CC2CCCCC2)NC(=O)CSC[C@@H](C(=O)NCC(N)=O)NC(=O)[C@H](CC(C)C)NC(=O)[C@H](Cc2ccc(O)cc2)NC(=O)[C@H](C(C)C)NC(=O)[C@@H]2CCCN2C1=O` [Example 279] ({CH2CO}-[Cha][Bip(4'-COOH)][Bip(4'-NHAc)][Sar][Tiq1c(1S)]D[dR]IPVYLCG-NH2; thioether N-13), 50 to 200 nM.
The same measure, in the same setting: in the case of `CC(=O)Nc1ccc(-c2ccc(C[C@@H]3NC(=O)[C@H](Cc4ccc(-c5ccccc5)cc4)NC(=O)[C@H](CN4CCOCC4)NC(=O)CSC[C@@H](C(=O)NCC(N)=O)NC(=O)[C@H](CC(C)C)NC(=O)[C@H](Cc4ncc[nH]4)NC(=O)[C@H](C4CCCCC4)NC(=O)[C@@H]4CCCN4C(=O)[C@H](C(C)C)NC(=O)[C@@H](CCCNC(=N)N)NC(=O)[C@H](CC(=O)O)NC(=O)[C@H](Cc4cccs4)NC(=O)CN(C)C3=O)cc2)cc1` [Example 463] ({CH2CO}-[Ala(morpholin-4-yl)][Bip][Bip(4'-NHAc)][Sar][2Thi]D[dR]VP[Chg][Ala(imidazol-2-yl)]LCG-NH2; thioether N-13) it was 50 to 200 nM; in that of `Cc1ccc(C[C@@H]2NC(=O)[C@H](C(C)C)NC(=O)[C@@H]3CCCN3C(=O)[C@H](C(C)C)NC(=O)[C@@H](CCCNC(=N)N)NC(=O)[C@H](CC(=O)O)NC(=O)[C@H](Cc3ccc(O)cc3)NC(=O)CN(C)C(=O)[C@H](Cc3ccc(-c4ccccc4)cc3)NC(=O)[C@H](Cc3ccc(-c4ccccc4)cc3)NC(=O)[C@H](CN3CCOCC3)NC(=O)CSC[C@@H](C(=O)NCC(N)=O)NC(=O)[C@H](CC(C)C)NC2=O)cc1` [Example 152] ({CH2CO}-[Ala(morpholin-4-yl)][Bip][Bip][Sar]YD[dR]VPV[Phe(4-Me)]LCG-NH2; thioether N-13), 50 to 200 nM.
Regarding `CC(=O)Nc1ccc(-c2ccc(C[C@@H]3NC(=O)[C@H](Cc4ccc(-c5ccccc5)cc4)NC(=O)[C@H](CN4CCOCC4)NC(=O)CSC[C@@H](C(=O)NCC(N)=O)NC(=O)[C@H](CC(C)C)NC(=O)[C@H](Cc4cnc[nH]4)NC(=O)[C@H](C(C)C)NC(=O)[C@@H]4CCCN4C(=O)[C@H](C(C)C)NC(=O)[C@@H](CCCNC(=N)N)NC(=O)[C@H](CC(=O)O)NC(=O)[C@H](Cc4ccc(O)cc4)NC(=O)CN(C)C3=O)cc2)cc1` [Example 213] ({CH2CO}-[Ala(morpholin-4-yl)][Bip][Bip(4'-NHAc)][Sar]YD[dR]VPVHLCG-NH2; thioether N-13), the half-maximal inhibitory concentration (IC50) was less than 50 nM.
